From patent publication US4822879A, “Enzyme-inhibitory griseolic acid derivatives, and their use” (Sankyo Company Limited, priority 1984, dated 1989) come the findings set out here.

Series [1] concerns the target cAMP PDE. Nature of the series: Enzyme inhibitory activity, cAMP PDE (crude enzymatic solution from rat brains). The format is biochemical. The note with it: for IC50: 14C-labeled cAMP substrate 0.14 μmoles, pH 8.0, 30° C., 20 minutes, read-out: I50 (50% inhibition value); for potency relative to papaverine: ratio to papaverine. The procedure: The enzyme inhibitory activity of dihydrodesoxygriseolic acid was measured, as was that of griseolic acid itself and that of the known cAMP PDE inhibitor, papaverine, for purposes of comparison.
The test was carried out following essentially the method of A. L. Pichard and Y. U. Chung [Journal of Biological Chemistry, 251, 5726-5737 (1976)]. A crude enzymatic solution derived from rat brains was used as the source of cAMP PDE.
^14 C-labeled cAMP was used as the substrate. It was employed in a 0.2M Tris-hydrochloric acid buffer solution (pH 8.0) in an amount sufficient to provide a final concentration of 0.14 μmoles. "Tris" is tris(hydroxymethyl)aminomethane. The substrate solution was mixed with an appropriate amount of the compound under test dissolved in 2-5 μl of dimethyl sulfoxide and with 20 μl of a snake venom solution and 40 μl of the crude enzyme solution. Sufficient Tris-hydrochloric acid buffer was added to make a total volume of 100 μl. The mixture was allowed to react at 30° C. for 20 minutes. At the end of this time, the reaction mixture was treated with an Amberlite (trademark) IRP-58 resin and the level of residual adenosine radioactivity in the product was determined.
The results are shown in the following Table 1, in which the I50 values are given in μmoles.

Series [2] has as its system male mice of the ddY strain. Nature of the series: Acute toxicity, intravenous, mice. The note with it: in words, from Table 2. An excerpt: The compounds under test were griseolic acid and dihydrodesoxygriseolic acid. The test animals were male mice of the ddY strain, 5 weeks of age and weighing 24.25 g. The mice were employed in groups of 3 or 5 animals for each test.
Administration was intravenous.
The results are reported in Table 2, in the form "a/b", where "a" is the number of deceased animals in the test group at the end of the test and "b" is the total number of animals in the relevant test group.

Series [3] in a line: Water solubility (stated in words). It counts as physicochemical.

As for `Nc1ncnc2c1ncn2[C@@H]1OC2=C[C@@](C(=O)O)(C(O)C(=O)O)O[C@H]2[C@H]1O` (some centres unmarked) [griseolic acid], the IC50 in series [1] was determined as 0.16 µM. In series [1] (from Table 1), the “potency relative to papaverine” value is “about 20 times”.

With `COc1ccc(Cc2nccc3cc(OC)c(OC)cc23)cc1OC` [papaverine, reference compound], the IC50 in series [1] came out at 3.5 µM.

Take `Nc1ncnc2c1ncn2C1OC2CC(CC(=O)O)(C(=O)O)OC2C1O` (centres unmarked) [dihydrodesoxygriseolic acid]: in series [2], the “toxicity compared with griseolic acid” value is given as “substantially less toxic than griseolic acid”. For the same compound, the water solubility result in series [3] is “water-soluble”. In addition, the IC50 in series [1] stood at 0.12 µM. Moreover, in series [1] (in words, from Table 1), the “inhibitory activity compared with griseolic acid” value is listed as “comparable with that of griseolic acid”. For the same compound, in series [1] (from Table 1), the “potency relative to papaverine” value is listed as “about 20 times”.
